{"source": "paper PMC6934184", "about": "“Selective DNA-PKcs inhibition extends the therapeutic index of localized radiotherapy and chemotherapy” (The Journal of Clinical Investigation, 2019)", "biological_target": "T1, CDK3/cyclin E1 (Homo sapiens, UniProt Q00526)", "T1 construct": "purchased Thermo Fisher Scientific (Life Technologies) SelectScreen", "T1 sequence (Q00526 whole entry)": "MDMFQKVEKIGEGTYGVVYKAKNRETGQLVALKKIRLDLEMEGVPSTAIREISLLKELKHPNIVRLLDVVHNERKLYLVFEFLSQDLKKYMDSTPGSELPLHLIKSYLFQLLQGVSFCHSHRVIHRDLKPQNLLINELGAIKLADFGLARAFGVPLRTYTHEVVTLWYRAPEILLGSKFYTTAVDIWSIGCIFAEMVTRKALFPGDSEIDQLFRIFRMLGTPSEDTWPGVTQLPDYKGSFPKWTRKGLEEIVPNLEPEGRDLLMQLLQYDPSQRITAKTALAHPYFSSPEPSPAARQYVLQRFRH", "T1 sequence (P24864 whole entry partner)": "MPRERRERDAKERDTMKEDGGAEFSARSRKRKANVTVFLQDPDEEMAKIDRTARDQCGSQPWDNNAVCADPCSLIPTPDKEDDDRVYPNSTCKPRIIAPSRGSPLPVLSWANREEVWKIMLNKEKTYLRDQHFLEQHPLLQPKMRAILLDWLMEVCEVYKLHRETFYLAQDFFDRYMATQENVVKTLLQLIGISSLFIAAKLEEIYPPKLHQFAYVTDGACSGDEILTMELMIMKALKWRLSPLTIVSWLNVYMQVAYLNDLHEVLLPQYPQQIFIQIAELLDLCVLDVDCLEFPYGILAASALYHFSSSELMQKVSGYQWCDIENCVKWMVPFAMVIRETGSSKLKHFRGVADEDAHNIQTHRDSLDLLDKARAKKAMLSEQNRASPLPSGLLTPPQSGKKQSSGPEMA", "test": "SelectScreen LanthaScreen", "format": "binding", "conditions": "1 µM", "how_it_was_run": "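Percent values come from Thermo SelectScreen profiling of NU5455, combining activity and binding assays. CSF1R was run in Z'LYTE format at Km app ATP, and CAMK1 in Adapta format with ATP listed at 10.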", "data": [{"smiles": "CN(C(=O)CN1CCOCC1)c1ccc2sc3c(-c4cccc5c(=O)cc(N6CC7CCC(C6)O7)oc45)cccc3c2c1", "note": "[NU5455]", "values": [{"measurement": "% displacement", "result": 1.9, "unit": "%"}]}]}
